Tested on: Carcinus maenas Hiat1 (CmHiat1)
Settings: 0.5-20 mM NH4Cl in OR2 bath; room temperature; net flux of whole oocyte, not sham-subtracted (endogenous NH4+ uptake present)

Km: 2300 µM
SMILES: N [NH4^+]
